Data published in patent publication US20090018111A1, “Novel Antimicrobial Medicament” (priority 2004, published 2009).
Like-named read-outs stand apart in the source and are kept apart here.

How the values were obtained:
Assay in all cases: Sensitivity test (agar dilution)
B. subtilis ATCC6633 = type: cell-based, Bacillus subtilis; settings: Bacillus subtilis, read-out: MIC
How it was run: (§1)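 Minimum inhibitory concentrations come from agar dilution in MHA, with single agents or combinations in twofold steps. Inocula: about 5 μl at about 10^6 CFU/ml. An FIC index of at most 1 marks a positive combination effect; above 1, negative.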

S. maltophilia IID1275 = type: cell-based, Stenotrophomonas maltophilia; settings: Stenotrophomonas maltophilia, read-out: MIC
How it was run: as §1

K. pneumoniae ATCC10031 = type: cell-based, Klebsiella pneumoniae; settings: Klebsiella pneumoniae, read-out: MIC
How it was run: as §1

P. aeruginosa TL-2666 = type: cell-based, Pseudomonas aeruginosa; settings: Pseudomonas aeruginosa, read-out: MIC
How it was run: as §1

P. aeruginosa IFO3451 = type: cell-based, Pseudomonas aeruginosa; settings: Pseudomonas aeruginosa, read-out: MIC
How it was run: as §1

S. epidermidis IAM1296 = type: cell-based, Staphylococcus epidermidis; settings: Staphylococcus epidermidis, read-out: MIC
How it was run: as §1

E. faecium ATCC19434 = type: cell-based, Enterococcus faecium
How it was run: as §1

M. catarrhalis ATCC8176 = type: cell-based, Moraxella catarrhalis; settings: Moraxella catarrhalis, read-out: MIC
How it was run: as §1

M. catarrhalis ATCC25238 = type: cell-based, Moraxella catarrhalis; settings: Moraxella catarrhalis, read-out: MIC
How it was run: as §1

P. mirabiris GN2425 = type: cell-based, Proteus mirabilis; settings: Proteus mirabilis, read-out: MIC
How it was run: as §1

E. aerogenes ATCC13048 = type: cell-based, Enterobacter aerogenes; settings: Klebsiella aerogenes, read-out: MIC
How it was run: as §1

E. coli ML1410 = type: cell-based, Escherichia coli; settings: Escherichia coli, read-out: MIC
How it was run: as §1

E. coli NIHJ JC-2 = type: cell-based, Escherichia coli; settings: Escherichia coli, read-out: MIC
How it was run: as §1

C[C@@H](O)[C@H]1C(=O)N2C(C(=O)O)=C(S[C@@H]3CN[C@H](C(=O)N(C)C)C3)[C@H](C)[C@H]12 [MEPM, meropenem]
MIC (B. subtilis ATCC6633; ATCC6633, Concomitant (MEPM:SM = 1:1)): ≤ 0.016 µg/mL | MIC (B. subtilis ATCC6633; ATCC6633, Concomitant (MEPM:SM = 1:2)): ≤ 0.016 µg/mL | MIC (B. subtilis ATCC6633; ATCC6633, Concomitant (MEPM:SM = 1:4)): ≤ 0.016 µg/mL | MIC (B. subtilis ATCC6633; ATCC6633, Concomitant drug (MEPM:SM = 2:1)): ≤ 0.016 µg/mL | MIC (B. subtilis ATCC6633; ATCC6633, alone): 0.063 µg/mL | MIC (S. maltophilia IID1275; IID1275, Concomitant (MEPM:SM = 1:1)): > 32 µg/mL | MIC (S. maltophilia IID1275; IID1275, Concomitant (MEPM:SM = 1:2)): > 32 µg/mL | MIC (S. maltophilia IID1275; IID1275, Concomitant (MEPM:SM = 1:4)): > 32 µg/mL | MIC (S. maltophilia IID1275; IID1275, Concomitant drug (MEPM:SM = 2:1)): > 32 µg/mL | MIC (S. maltophilia IID1275; IID1275, alone): > 32 µg/mL | MIC (K. pneumoniae ATCC10031; ATCC10031, Concomitant (MEPM:SM = 1:1)): ≤ 0.016 µg/mL | MIC (K. pneumoniae ATCC10031; ATCC10031, Concomitant (MEPM:SM = 1:2)): ≤ 0.016 µg/mL | MIC (K. pneumoniae ATCC10031; ATCC10031, Concomitant (MEPM:SM = 1:4)): ≤ 0.016 µg/mL | MIC (K. pneumoniae ATCC10031; ATCC10031, Concomitant drug (MEPM:SM = 2:1)): ≤ 0.016 µg/mL | MIC (K. pneumoniae ATCC10031; ATCC10031, alone): ≤ 0.016 µg/mL | MIC (P. aeruginosa TL-2666; TL2666, Concomitant (MEPM:SM = 1:1)): 1 µg/mL | MIC (P. aeruginosa TL-2666; TL2666, Concomitant (MEPM:SM = 1:2)): 1 µg/mL | MIC (P. aeruginosa TL-2666; TL2666, Concomitant (MEPM:SM = 1:4)): 1 µg/mL | MIC (P. aeruginosa TL-2666; TL2666, Concomitant drug (MEPM:SM = 2:1)): 1 µg/mL | MIC (P. aeruginosa TL-2666; TL2666, alone): 1 µg/mL | MIC (P. aeruginosa IFO3451; IFO3451, Concomitant (MEPM:SM = 1:1)): 0.5 µg/mL | MIC (P. aeruginosa IFO3451; IFO3451, Concomitant (MEPM:SM = 1:2)): 0.5 µg/mL | MIC (P. aeruginosa IFO3451; IFO3451, Concomitant (MEPM:SM = 1:4)): 0.5 µg/mL | MIC (P. aeruginosa IFO3451; IFO3451, Concomitant drug (MEPM:SM = 2:1)): 0.5 µg/mL | MIC (P. aeruginosa IFO3451; IFO3451, alone): 0.5 µg/mL | MIC (S. epidermidis IAM1296; IAM1296, Concomitant (MEPM:SM = 1:1)): ≤ 0.016 µg/mL | MIC (S. epidermidis IAM1296; IAM1296, Concomitant (MEPM:SM = 1:2)): ≤ 0.016 µg/mL | MIC (S. epidermidis IAM1296; IAM1296, Concomitant (MEPM:SM = 1:4)): ≤ 0.016 µg/mL | MIC (S. epidermidis IAM1296; IAM1296, Concomitant drug (MEPM:SM = 2:1)): 0.063 µg/mL | MIC (S. epidermidis IAM1296; IAM1296, alone): 1 µg/mL | MIC (E. faecium ATCC19434; Concomitant (MEPM:SM = 1:2)): 0.125 µg/mL | MIC (E. faecium ATCC19434; Enterococcus faecium, ATCC19434): 0.125 µg/mL | MIC (E. faecium ATCC19434; Enterococcus faecium, ATCC19434, Concomitant (MEPM:SM = 1:4), read-out: MIC): 0.031 µg/mL | MIC (E. faecium ATCC19434; Enterococcus faecium, ATCC19434, Concomitant drug (MEPM:SM = 2:1), read-out: MIC): 0.5 µg/mL | MIC (E. faecium ATCC19434; Enterococcus faecium, ATCC19434, alone, read-out: MIC): 8 µg/mL | MIC (M. catarrhalis ATCC8176; ATCC8176, Concomitant (MEPM:SM = 1:1)): ≤ 0.016 µg/mL | MIC (M. catarrhalis ATCC8176; ATCC8176, Concomitant (MEPM:SM = 1:2)): ≤ 0.016 µg/mL | MIC (M. catarrhalis ATCC8176; ATCC8176, Concomitant (MEPM:SM = 1:4)): ≤ 0.016 µg/mL | MIC (M. catarrhalis ATCC8176; ATCC8176, Concomitant drug (MEPM:SM = 2:1)): ≤ 0.016 µg/mL | MIC (M. catarrhalis ATCC8176; ATCC8176, alone): ≤ 0.016 µg/mL | MIC (M. catarrhalis ATCC25238; ATCC25238, Concomitant (MEPM:SM = 1:1)): ≤ 0.016 µg/mL | MIC (M. catarrhalis ATCC25238; ATCC25238, Concomitant (MEPM:SM = 1:2)): ≤ 0.016 µg/mL | MIC (M. catarrhalis ATCC25238; ATCC25238, Concomitant (MEPM:SM = 1:4)): ≤ 0.016 µg/mL | MIC (M. catarrhalis ATCC25238; ATCC25238, Concomitant drug (MEPM:SM = 2:1)): ≤ 0.016 µg/mL | MIC (M. catarrhalis ATCC25238; ATCC25238, alone): ≤ 0.016 µg/mL | MIC (P. mirabiris GN2425; GN2425, Concomitant (MEPM:SM = 1:1)): ≤ 0.016 µg/mL | MIC (P. mirabiris GN2425; GN2425, Concomitant (MEPM:SM = 1:2)): 0.031 µg/mL | MIC (P. mirabiris GN2425; GN2425, Concomitant (MEPM:SM = 1:4)): ≤ 0.016 µg/mL | MIC (P. mirabiris GN2425; GN2425, Concomitant drug (MEPM:SM = 2:1)): 0.031 µg/mL | MIC (P. mirabiris GN2425; GN2425, alone): 0.063 µg/mL | MIC (E. aerogenes ATCC13048; ATCC13048, Concomitant (MEPM:SM = 1:1)): ≤ 0.016 µg/mL | MIC (E. aerogenes ATCC13048; ATCC13048, Concomitant (MEPM:SM = 1:2)): 0.031 µg/mL | MIC (E. aerogenes ATCC13048; ATCC13048, Concomitant (MEPM:SM = 1:4)): 0.031 µg/mL | MIC (E. aerogenes ATCC13048; ATCC13048, Concomitant drug (MEPM:SM = 2:1)): 0.031 µg/mL | MIC (E. aerogenes ATCC13048; ATCC13048, alone): 0.063 µg/mL | MIC (E. coli ML1410; ML1410, Concomitant (MEPM:SM = 1:1)): ≤ 0.016 µg/mL | MIC (E. coli ML1410; ML1410, Concomitant (MEPM:SM = 1:2)): ≤ 0.016 µg/mL | MIC (E. coli ML1410; ML1410, Concomitant (MEPM:SM = 1:4)): ≤ 0.016 µg/mL | MIC (E. coli ML1410; ML1410, Concomitant drug (MEPM:SM = 2:1)): ≤ 0.016 µg/mL | MIC (E. coli ML1410; ML1410, alone): 0.031 µg/mL | MIC (E. coli NIHJ JC-2; NIHJJC2, Concomitant (MEPM:SM = 1:1)): ≤ 0.016 µg/mL | MIC (E. coli NIHJ JC-2; NIHJJC2, Concomitant (MEPM:SM = 1:2)): ≤ 0.016 µg/mL | MIC (E. coli NIHJ JC-2; NIHJJC2, Concomitant (MEPM:SM = 1:4)): ≤ 0.016 µg/mL | MIC (E. coli NIHJ JC-2; NIHJJC2, Concomitant drug (MEPM:SM = 2:1)): ≤ 0.016 µg/mL | MIC (E. coli NIHJ JC-2; NIHJJC2, alone): ≤ 0.016 µg/mL
